This passage reports IC50 results from patent publication US7608622B2, “Imidazo[4,5-b]pyrazinone inhibitors of protein kinases” (Janssen Pharmaceutica NV, priority 2004, dated 2009).

Each structure is given as a SMILES string. Bounds are passed on as bounds.

The target of the test is T1, Aurora-2 (Homo sapiens, UniProt O14965).
T1 construct: autophosphorylation of Aurora-2 (residues 125-391)
T1 sequence (O14965 125-391): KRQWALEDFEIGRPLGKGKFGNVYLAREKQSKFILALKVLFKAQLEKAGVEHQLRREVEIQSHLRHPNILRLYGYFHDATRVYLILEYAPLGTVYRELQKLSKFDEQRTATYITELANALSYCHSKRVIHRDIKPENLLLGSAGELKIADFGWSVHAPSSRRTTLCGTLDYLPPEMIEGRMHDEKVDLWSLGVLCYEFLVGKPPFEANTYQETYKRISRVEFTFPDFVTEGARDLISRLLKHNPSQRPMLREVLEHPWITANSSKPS
The test is described as follows: Aurora-2 Enzymatic Assay (ELISA-based). The class given is biochemical. As to conditions: phosphorylated Aurora-2 (residues 125-391), Histone H3 Ser-10 phosphorylation, averages of three independent measurements; read-out: Aurora-2 IC50 Enzyme. The protocol:
In vitro assays were run to measure potency of Aurora-2 kinase inhibition by selected compounds of Formula I.
Aurora-2 Enzymatic Assay. An ELISA-based enzymatic assay was used to determine the compound potency for Aurora-2. In this assay, phosphorylated Aurora-2 (Pi-Aurora-2) catalyzes the ATP-dependent phosphorylation of Ser-10 of Histone H3. Pi-Aurora-2 was produced by autophosphorylation of Aurora-2 (residues 125-391) by 1 mM ATP in the presence of 10 mM MgCl2. The assay buffer used was 100 mM HEPES, pH 7.5, 1 mM DTT, 0.01% (v/v) Tween-20. Compounds were diluted in assay buffer containing 4% DMSO just prior to the assay. • Procedure. High-binding 96-well ELISA plates (Costar 9018) were coated overnight at 4° C. with 10 μg/ml human Histone H3 (Upstate) in PBS (100 μl/well). The following day, the plates were emptied and blocked with 1% BSA in PBS (150 μl/well) for 1 h at 37° C. At the end of the incubation, plates were washed 3 times with 0.01% Tween-20 in PBS (300 μl/well). 50 μl of compound were dispensed to each well followed by addition of 20 μl 10 mM MgCl2 and 20 μl 50 μM ATP (Sigma). The reaction was initiated by addition of 10 μl 30 nM Pi-Aurora-2. […] The reaction was quenched with 9 μl 50 mM EDTA and the plates were washed 5 times with 0.01% Tween-20 in PBS (300 μl/well). The phospho-histone H3 (Ser10) 6G3 monoclonal antibody (Cell Signaling) was then diluted 2,000-fold with 1% BSA in PBS, and was added to the plates (100 μl/well). Following 1 h incubation at 37° C., the plates were washed as described above. The HRP-conjugated secondary antibody (goat anti-mouse Ig(H+ L)-HRP human absorbed, Southern Biotechnology Associates, Inc.) was diluted 20,000-fold with 1% BSA in PBS and was added to the plates (100 μl/well). The plates were incubated for 1 h at 37° C. and then washed 5 times with 0.01% Tween-20 in PBS (300 μl/well). 100 μl/well TMB, SureBlue Reserve (KPL) were added. After ca. 5-6 min, each well received 100 μl 1 M HCl and the OD450 was measured with a SpectraMax Plus microplate reader (Molecular Devices). Under these conditions, absorbance values for positive and negative controls were ca. 0.1 and 1.7, respectively, and were used to define the 100% and 0% inhibition of the Aurora-2 reaction. The IC50 values reported (Table 1) are the averages of three independent measurements.
A general note: An ELISA detects its analyte on a solid surface through an enzyme-linked reagent.
`COc1cc(-c2cnc3[nH]c(=O)n(Cc4cccc(F)c4)c3n2)cc(OC)c1OC` [Compound 31, 1-(3-Fluorobenzyl)-6-(3,4,5-trimethoxyphenyl)-10,3-dihydro-imidazo[4,5-b]pyrazin-2-one]: the IC50 was under 0.5 µM.

Turning to `CC(=O)c1cccc(-c2cnc3[nH]c(=O)n(Cc4ccccc4)c3n2)c1` [Compound 13, 6-(3-Acetylphenyl)-1-benzyl-1,3-dihydroimidazo[4,5-b]pyrazin-2-one], the 50% inhibitory concentration (IC50) is over 1 µM. As for `COc1cc(-c2cnc3[nH]c(=O)n(Cc4cccc(C)c4)c3n2)cc(OC)c1OC` [Compound 30, 1-(3-Methylbenzyl)-6-(3,4,5-trimethoxyphenyl)-1,3-dihydro-imidazo[4,5-b]pyrazin-2-one], the IC50 lay in the range of 0.5 to 1 µM. On to `Cc1noc(C)c1-c1cnc2[nH]c(=O)n([C@@H](C)c3ccccc3)c2n1` [Compound 5, 6-(3,5-Dimethylisoxazol-4-yl)-1-((S)-(−)-1-phenylethyl)-1,3-dihydro-imidazo[4,5-b]pyrazin-2-one], for which the IC50 was over 1 µM. To `COc1cc(-c2cnc3[nH]c(=O)n(Cc4cccnc4)c3n2)cc(OC)c1OC` [Compound 20, 1-Pyridin-3-yl methyl-6-(3,4,5-trimethoxyphenyl)-1,3-dihydroimidazo-[4,5-b]pyrazin-2-one] belongs under 0.5 µM; to `O=C(O)c1cc(-c2cnc3[nH]c(=O)n(Cc4ccccc4)c3n2)ccc1O` [Compound 25, 5-(3-Benzyl-2-oxo-2,3-dihydro-1H-imidazo[4,5-b]pyrazin-5-yl)-2-hydroxybenzoic acid], 0.5 to 1 µM; to `COc1cc(-c2cnc3[nH]c(=O)n(Cc4cccc([N+](=O)[O-])c4)c3n2)cc(OC)c1OC` [Compound 27, 1-(3-Nitrobenzyl)-6-(3,4,5-trimethoxyphenyl)-1,3-dihydroimidazo[4,5-b]pyrazin-2-one], over 1 µM. In the case of `C[C@@H](c1ccccc1)n1c(=O)[nH]c2ncc(-c3cc4ccccc4[nH]3)nc21` [Compound 8, 6-(1H-Indol-2-yl)-1-((S)-(−)-1-phenylethyl)-1,3-dihydro-imidazo[4,5-b]pyrazin-2-one], the half-maximal inhibitory concentration (IC50) is over 1 µM. To `COc1ccc(-c2cnc3[nH]c(=O)n(Cc4ccccc4)c3n2)cc1CO` [Compound 24, 1-Benzyl-6-(3-hydroxymethyl-4-methoxyphenyl)-1,3-dihydro-imidazo[4,5-b]pyrazin-2-one] belongs over 1 µM. To `COc1cc(-c2cnc3[nH]c(=O)n([C@@H](C)c4ccccc4)c3n2)cc(OC)c1OC` [Compound 1, 1-((S)-(−)-1-Phenylethyl)-6-(3,4,5-trimethoxyphenyl)-1,3-dihydroimidazo[4,5-b]pyrazin-2-one] belongs under 0.5 µM. `C[C@@H](c1ccccc1)n1c(=O)[nH]c2ncc(-c3cccc(CO)c3)nc21` [Compound 7, 6-(3-Hydroxymethylphenyl)-1-((S)-(−)-1-phenylethyl)-1,3-dihydro-imidazo[4,5-b]pyrazin-2-one]: the IC50 lay within 0.5 to 1 µM. Consider `COc1cc(-c2cnc3[nH]c(=O)n(Cc4cccc(Cl)c4)c3n2)cc(OC)c1OC` [Compound 29, 1-(3-Chlorobenzyl)-6-(3,4,5-trimethoxyphenyl)-1,3-dihydro-imidazo[4,5-b]pyrazin-2-one], for which the IC50 is under 0.5 µM. As to `COc1cc(-c2cnc3[nH]c(=O)n(C4CCc5ccccc54)c3n2)cc(OC)c1OC` (stereo not drawn) [Compound 35, 1-Indan-1-yl-6-(3,4,5-trimethoxyphenyl)-1,3-dihydroimidazo[4,5-b]pyrazin-2-one], the IC50 is under 0.5 µM.

Regarding `COc1cc(-c2cnc3[nH]c(=O)n([C@H](C)c4ccccc4)c3n2)cc(OC)c1OC` [Compound 2, 1-((R)-(+)-1-Phenylethyl)-6-(3,4,5-trimethoxyphenyl)-1,3-dihydro-imidazo[4,5-b]pyrazin-2-one], the IC50 is over 1 µM. With `COc1cc(-c2cnc3[nH]c(=O)n(Cc4ccccc4)c3n2)cc(OC)c1OC` [Compound 3, 1-Benzyl-6-(3-4,5-trimethoxyphenyl)-1,3-dihydroimidazo[4,5-b]pyrazin-2-one], the IC50 was under 0.5 µM. Then `O=c1[nH]c2ncc(-c3cccnc3)nc2n1Cc1ccccc1` [Compound 9, 1-Benzyl-6-pyridin-3-yl-1,3-dihydroimidazo[4,5-b]pyrazin-2-one], with over 1 µM; and `O=C(O)c1cccc(-c2cnc3[nH]c(=O)n(Cc4ccccc4)c3n2)c1` [Compound 18, 3-(3-Benzyl-2-oxo-2,3-dihydro-1H-imidazo[4,5-b]pyrazin-5-yl)benzoic acid], with 0.5 to 1 µM. As to `COc1cc(-c2cnc3[nH]c(=O)n(Cc4cccc5ccccc45)c3n2)cc(OC)c1OC` [Compound 33, 1-Naphthalen-1-ylmethyl-6-(3,4,5-trimethoxyphenyl)-1,3-dihydro-imidazo[4,5-b]pyrazin-2-one], the IC50 is over 1 µM.

`COc1ccc(-c2cnc3[nH]c(=O)n(Cc4ccccc4)c3n2)c(OC)c1` [Compound 14, 1-Benzyl-6-(2,4-dimethoxyphenyl)-1,3-dihydroimidazo[4,5-b]pyrazin-2-one]: the IC50 is over 1 µM. As for `C[C@@H](c1ccccc1)n1c(=O)[nH]c2ncc(-c3ccc4[nH]ccc4c3)nc21` [Compound 4, 6-(1H-Indol-5-yl)-1-((S)-(−)-1-phenylethyl)-1,3-dihydroimidazo[4,5-b]pyrazin-2-one], the IC50 is over 1 µM. Take `COc1ccc(-c2cnc3[nH]c(=O)n(Cc4ccccc4)c3n2)cc1C=O` [Compound 22, 5-(3-Benzyl-2-oxo-2,3-dihydro-1H-imidazo[4,5-b]pyrazin-5-yl)-2-methoxybenzaldehyde]: the IC50 is over 1 µM. Consider `COc1cc(-c2cnc3[nH]c(=O)n(Cc4ccccc4Cl)c3n2)cc(OC)c1OC` [Compound 37, 1-(2-Chlorobenzyl)-6-(3,4,5-trimethoxyphenyl)-1,3-dihydro-imidazo[4,5-b]pyrazin-2-one], for which the IC50 was under 0.5 µM. On to `COc1cc(-c2cnc3[nH]c(=O)n(Cc4cccc(N)c4)c3n2)cc(OC)c1OC` [Compound 39, 1-(3-Aminobenzyl)-6-(3,4,5-trimethoxyphenyl)-1,3-dihydro-imidazo[4,5-b]pyrazin-2-one], for which the IC50 fell in the range of 0.5 to 1 µM.

On to `COCc1cccc(-c2cnc3[nH]c(=O)n(Cc4ccccc4)c3n2)c1` [Compound 12, 1-Benzyl-6-(3-methoxymethylphenyl)-1,3-dihydroimidazo[4,5-b]pyrazin-2-one], for which the IC50 was over 1 µM. To `COc1ccc(-c2cnc3[nH]c(=O)n(Cc4ccccc4)c3n2)cn1` [Compound 11, 1-Benzyl-6-(6-methoxypyridin-3-yl)-1,3-dihydroimidazo[4,5-b]pyrazin-2-one] belongs over 1 µM. Consider `COc1cc(-c2cnc3[nH]c(=O)n(Cc4ccc5c(c4)OCO5)c3n2)cc(OC)c1OC` [Compound 34, 1-Benzo[1,3]dioxol-5-ylmethyl-6-(3,4,5-trimethoxyphenyl)-1,3-dihydroimidazo[4,5-b]pyrazin-2-one], for which the IC50 is 0.5 to 1 µM.

Regarding `COc1ccc(-c2cnc3[nH]c(=O)n(Cc4ccccc4)c3n2)cc1OC` [Compound 10, 1-Benzyl-6-(3,4-dimethoxyphenyl)-1,3-dihydroimidazo[4,5-b]pyrazin-2-one], the IC50 fell in the range of 0.5 to 1 µM. `C[C@@H](c1ccccc1)n1c(=O)[nH]c2ncc(-c3cccc(C#N)c3)nc21` [Compound 6, 3-[2-Oxo-3-((S)-(−)-1-phenylethyl)-2,3-dihydro-1H-imidazo[4,5-b]pyrazin-5-yl]benzonitrile]: the IC50 is over 1 µM. Take `COc1cc(-c2cnc3[nH]c(=O)n(Cc4cccs4)c3n2)cc(OC)c1OC` [Compound 36, 1-Thiophen-2-ylmethyl-6-(3,4,5-trimethoxyphenyl)-1,3-dihydro-imidazo[4,5-b]pyrazin-2-one]: the IC50 is under 0.5 µM. Regarding `COc1ccc(-c2cnc3[nH]c(=O)n(Cc4ccccc4)c3n2)cc1C(=O)O` [Compound 23, 5-(3-Benzyl-2-oxo-2,3-dihydro-1H-imidazo[4,5-b]pyrazin-5-yl)-2-methoxybenzoic acid], the IC50 is under 0.5 µM.

The IC50 is the point on the concentration scale where inhibition reaches its midpoint.
